Results taken from publication PMC5835316 (Chemosphere, 2017).
Read-outs that look alike come from different tables or passages of the source.

Assays:
[1] = system: zebrafish (Danio rerio) embryo; test: zebrafish embryo teratogenicity assay; conditions: for EC50/LC50: retinoids, deformity equivalent to mortality, probit analysis; for percent deformity: 15, 30 and 60 µM (≥ 15 µM); for EC50: read-out: EC50 (for teratogenicity) and LC50, equivalently calculated
[2] = system: zebrafish (Danio rerio) embryo; conditions: ref Hermann, 1995; Selderslaghs et al., 2009; Wang et al., 2014; cited from earlier work
[3] = type: physicochemical; conditions: mild heating; standing at room temperature and ambient light
RAR = conditions: ref Repa et al., 1993; cited from earlier work

**Q.** For `CC1=C(/C=C/C(C)=C/C=C/C(C)=C/C=C/C=C(C)/C=C/C=C(C)/C=C/C2=C(C)C[C@@H](O)CC2(C)C)C(C)(C)C[C@H](O)C1` [zeaxanthin], which “observed deformities (Fig. 5)” value ([1]; 60 µM, 3 dpf) is on record?
**A.** little effect

**Q.** What about the embryo development ([1]; 3–5 dpf, 60 µM) of the same compound?
**A.** developed normally

**Q.** And the teratogenicity ([1]; 5-day exposure studies, 1-60 µM)?
**A.** no teratogenicity was observed

**Q.** Which EC50/LC50 [1] does the source give for `CC1=C(/C=C/C(C)=C/C=C/C(C)=C/CO)C(C)(C)CCC1` [retinol] here?
**A.** 9.2 ± 7.6 µM

**Q.** Which “observed deformities (Fig. 5)” value ([1]; 30 µM, 3 dpf) does the source give for `CC1=C(/C=C/C(C)=C/C=C/C(C)=C/C=C/C=C(C)/C=C/C=C(C)/C=C/C2=C(C)C(=O)CCC2(C)C)C(C)(C)CCC1=O` [canthaxanthin] here?
**A.** head and eye hypoplasia and truncated tail

**Q.** What about the “percent deformity (development toxicity)” value ([1]; 2 dpf, 60 µM) of the same compound?
**A.** approximately 89%

**Q.** And the percent deformity ([1]; by 3 dpf)?
**A.** 100%

**Q.** What about the EC50 ([1]; at 5 dpf, ± standard error) of the same compound?
**A.** 8.7 ± 1.8 µM

**Q.** For “4-Hydroxymyxol 2′-glycoside [Compound 3]”, which “teratogenicity (qualitative, bioassay-guided fractionation)” value ([1]; in vivo) is on record?
**A.** single bioactive component

**Q.** What does the source list for `CC1=C(/C=C/C(C)=C/C=C/C(C)=C/C=C/C=C(C)/C=C/C=C(\C)C=O)C(C)(C)CCC1` [β-apo-8’carotenal, trans-β-apo-8’carotenal]?
**A.** teratogenicity ([1]; at 3 dpf): no teratogenicity was observed; developmental toxicity (percent deformity) ([1]; at 5 dpf, not significantly different from controls): ~ 22%

**Q.** Which results are given for `CC1=C(/C=C/C(C)=C/C=C/C(C)=C/C(=O)O)C(C)(C)CCC1` [RA, all-trans retinoic acid]?
**A.** teratogenicity at lowest concentration tested ([1]; 1 µM): effectively lethal; observed deformities (Fig. 5) ([1]; 1 µM, 3 dpf and 5 dpf): severely arrested development of the body axis including head and eye hypoplasia and truncated tail; LC50 and EC50 (for teratogenicity) previously reported in the zebrafish embryo [2]: nanomolar to sub-nanomolar range

**Q.** For `CC1=C[C@H](O)CC(C)(C)[C@H]1/C=C/C(C)=C/C=C/C(C)=C/C=C/C=C(C)/C=C/C=C(C)/C=C/C1=C(C)C[C@@H](O)CC1(C)C` [lutein], which “observed deformities (Fig. 5)” value ([1]; 30 µM) is on record?
**A.** head and eye hypoplasia and truncated tail

**Q.** What about the EC50 ([1]; Danio rerio) of the same compound?
**A.** 4.7 ± 3 µM

**Q.** What about the percent deformity ([1]; by 3 dpf) of the same compound?
**A.** 100%

**Q.** With `CC1=C(/C=C/C(C)=C/C=C/C(C)=C/C=C/C=C(C)/C=C/C=C(C)/C=C/C=C(C)/C=C/[C@H](O[C@@H]2O[C@@H](C)[C@@H](O)[C@@H](O)[C@@H]2O)C(C)(C)O)C(C)(C)C[C@H](O)C1` [Compound 1, Myxol 2′-glycoside] as the compound, how does the “observed deformities (Fig. 5)” value ([1]; 5 µM, 3 and 5 dpf) read?
**A.** head and eye hypoplasia, truncated tail and pericardial edema

**Q.** And the “concentration showing pronounced developmental dysfunction” value ([1]; by 3 dpf)?
**A.** ≥ 5 µM

**Q.** What about the percent deformity ([1]; by 3 dpf) of the same compound?
**A.** 100%

**Q.** What about the EC50 ([1]; at 5 dpf, ± standard error) of the same compound?
**A.** 2.4 ± 0.9 µM

**Q.** And the stability [3]?
**A.** highly unstable

**Q.** Which results are given for `CC1=C(/C=C/C(C)=C/C=C/C(C)=C/C=C/C=C(C)/C=C/C=C(C)/C=C/C2=C(C)CCCC2(C)C)C(C)(C)CCC1` [β-carotene]?
**A.** observed deformities (Fig. 5) ([1]; 30 µM, 5 dpf): truncated tail and pericardial edema; EC50 ([1]; Danio rerio): 23.5 ± 8.9 µM

**Q.** Which results are given for 4-Ketomyxol 2′-glycoside [Compound 2]?
**A.** observed deformities (Fig. 5) ([1]; 3 and 5 dpf): head and eye hypoplasia and truncated tail; additional concentration with significant percent deformity ([1]; by 3 dpf): 5 µM; concentration showing pronounced developmental dysfunction ([1]; by 3 dpf): ≥ 5 µM; percent deformity ([1]; by 3 dpf): 100%; EC50 ([1]; at 5 dpf, ± standard error): 1.8 ± 0.2 µM; stability [3]: highly unstable

**Q.** Which EC50/LC50 [1] does the source give for `CC1=C(/C=C/C(C)=C/C=C/C(C)=C/C=O)C(C)(C)CCC1` [retinal, all-trans retinaldehyde] here?
**A.** 1.8 ± 0.7 µM

**Q.** What about the “binding affinity to RAR” value (RAR) of the same compound?
**A.** essentially no binding affinity
